Source: patent EP0462831B1, “Bicyclic pyran derivatives and their use as inhibitors of 5-lipoxygenase” (ZENECA LIMITED, priority 1990, dated 1991)

Columns and labels:
5-LO [1] = target: T1, 5-LO (Rattus norvegicus, UniProt P12527); assay: Test g): zymosan-induced liberation of LTB₄ in a subcutaneous air pouch; assay type: in vivo, rats; settings: oral, 3 hours, read-out: oral ED₅₀(LTB₄)
T1 construct: liberation of LTB₄ induced by zymosan within an air pouch generated within the subcutaneous tissue of the back of male rats; from tissue; host or cells: subcutaneous air pouch of male rats (in vivo)
T1 sequence (P12527 1-673): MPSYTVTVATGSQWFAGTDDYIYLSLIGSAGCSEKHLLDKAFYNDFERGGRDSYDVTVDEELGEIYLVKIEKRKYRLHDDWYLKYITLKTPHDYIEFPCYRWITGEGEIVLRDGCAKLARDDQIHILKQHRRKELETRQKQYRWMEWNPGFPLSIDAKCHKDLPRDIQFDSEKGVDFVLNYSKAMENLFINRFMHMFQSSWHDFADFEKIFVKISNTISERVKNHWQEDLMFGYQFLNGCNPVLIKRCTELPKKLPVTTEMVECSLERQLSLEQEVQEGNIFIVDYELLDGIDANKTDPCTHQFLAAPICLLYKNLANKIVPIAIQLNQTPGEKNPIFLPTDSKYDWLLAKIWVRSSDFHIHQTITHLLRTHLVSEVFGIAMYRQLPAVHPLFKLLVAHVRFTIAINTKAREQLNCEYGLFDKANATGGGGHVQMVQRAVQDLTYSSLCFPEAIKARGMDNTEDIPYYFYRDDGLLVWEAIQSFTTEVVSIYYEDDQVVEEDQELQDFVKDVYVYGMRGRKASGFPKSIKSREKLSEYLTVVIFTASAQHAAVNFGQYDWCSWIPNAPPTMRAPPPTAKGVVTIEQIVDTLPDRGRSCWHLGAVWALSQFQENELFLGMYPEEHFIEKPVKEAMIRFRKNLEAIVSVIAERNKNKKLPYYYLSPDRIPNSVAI

5-LO [2] = target: T2, 5-LO (Homo sapiens, UniProt P09917); assay: Test b): heparinised human blood challenged with calcium ionophore A23187, radioimmunoassay of LTB₄; assay type: cell-based; settings: A23187 challenge, read-out: IC₅₀ (LTB₄)
T2 construct: incubating a test compound with heparinised human blood, prior to challenge with the calcium ionophore A23187; endogenous in cells; host or cells: blood cells in heparinised human whole blood
T2 sequence (P09917 1-674): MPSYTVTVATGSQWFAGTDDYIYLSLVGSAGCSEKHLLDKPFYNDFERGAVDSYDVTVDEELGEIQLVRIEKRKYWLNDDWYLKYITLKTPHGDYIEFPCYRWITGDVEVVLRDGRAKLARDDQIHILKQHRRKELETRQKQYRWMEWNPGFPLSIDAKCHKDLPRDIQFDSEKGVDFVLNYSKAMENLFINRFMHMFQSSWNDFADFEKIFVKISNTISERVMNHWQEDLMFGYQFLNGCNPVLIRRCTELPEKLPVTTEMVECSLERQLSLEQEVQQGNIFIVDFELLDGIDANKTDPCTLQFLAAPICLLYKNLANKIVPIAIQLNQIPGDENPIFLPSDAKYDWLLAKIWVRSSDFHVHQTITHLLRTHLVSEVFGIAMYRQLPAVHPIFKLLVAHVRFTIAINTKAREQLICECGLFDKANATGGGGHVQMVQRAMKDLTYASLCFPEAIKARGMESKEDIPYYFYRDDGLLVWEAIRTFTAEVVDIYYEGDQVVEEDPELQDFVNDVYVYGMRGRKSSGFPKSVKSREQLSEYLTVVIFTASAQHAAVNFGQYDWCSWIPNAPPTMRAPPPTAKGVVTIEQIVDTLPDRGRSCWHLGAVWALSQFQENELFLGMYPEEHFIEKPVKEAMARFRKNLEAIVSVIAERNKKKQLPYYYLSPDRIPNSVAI
Experimental: As stated previously, the novel compounds of the formula I are inhibitors of the enzyme 5-LO. […] This test provides a measure of the intrinsic inhibitory properties of a test compound against soluble 5-LO in an extracellular environment. • b) An in vitro assay system involving incubating a test compound with heparinised human blood, prior to challenge with the calcium ionophore A23187 and then indirectly measuring the inhibitory effects on 5-LO by assaying the amount of LTB₄ using specific radioimmunoassays described by Carey and Forder (F. Carey and R.A. Forder, Prostaglandins, Leukotrienes Med., 1986, 22, 57; Prostaglandins, 1984, 28, 666; Brit. J. Pharmacol. 1985, 84, 34P) which involve the use of a protein-LTB₄ conjugate produced using the procedure of Young et alia (Prostaglandins, 1983, 26(4), 605-613). The effects of a test compound on the enzyme cyclooxygenase (which is involved in the alternative metabolic pathway for arachidonic acid and gives rise to prostaglandins, thromboxanes and related metabolites) may be measured at the same time using the specific radioimmunoassay for thromboxane B₂(TxB₂) described by Carey and Forder (see above). This test provides an indication of the effects of a test compound against 5-LO and also cyclooxygenase in the presence of blood cells and proteins. […]

ED50 (5-LO [1]): < 2 mg/kg | IC50 (5-LO [2]): 50 nM
SMILES: COC1(c2cccc(Sc3ccc4c(c3)n(C)c(=O)n4C)c2)CCOCC1 [Example 1, 4-[3-(1,3-dimethyl-2-oxo-2,3-dihydrobenzimidazol-5-ylthio)phenyl]-4-methoxy-tetrahydropyran]
